How the values were obtained:
Test in all cases: viability relative to DMSO control (fraction); higher = less drug effect (more viable cells)
Details in all cases: 48 h
[1] = tested on: primary AML patient cells (S006)
How it was run: (§1)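 Primary mononuclear tumour cells (Ficoll-isolated from blood or bone marrow, or processed lymph node; fresh or cryopreserved) were plated at 4 × 10^4 cells per well in 384-well plates with pre-plated compounds at five concentrations, one well each. Medium was RPMI-1640 with penicillin/streptomycin, L-glutamine and human serum, at 37 °C and 5% CO2 for 48 h. Viability was read as CellTiter-Glo luminescence relative to the median of 16 inner DMSO wells.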

[2] = tested on: primary AML patient cells (S011)
How it was run: as §1

[3] = tested on: primary AML patient cells (S012)
How it was run: as §1

[4] = tested on: primary AML patient cells (S037)
How it was run: as §1

[5] = tested on: primary AML patient cells (S056)
How it was run: as §1

[6] = tested on: primary AML patient cells (S081)
How it was run: as §1

[7] = tested on: primary AML patient cells (S085)
How it was run: as §1

[8] = tested on: primary BL patient cells (S005)
How it was run: as §1

[9] = tested on: primary CLL patient cells (S031)
How it was run: as §1

[10] = tested on: primary CLL patient cells (S043)
How it was run: as §1

[11] = tested on: primary DLBCL patient cells (S049)
How it was run: as §1

[12] = tested on: primary DLBCL patient cells (S076)
How it was run: as §1

[13] = tested on: primary MCL patient cells (S041)
How it was run: as §1

[14] = tested on: primary MCL patient cells (S063)
How it was run: as §1

[15] = tested on: primary MCL patient cells (S068)
How it was run: as §1

[16] = tested on: primary T-NHL patient cells (S058)
How it was run: as §1

[17] = tested on: primary T-PLL patient cells (S008)
How it was run: as §1

## C/C=C1\NC(=O)[C@H]2CSSCC/C=C/[C@H](CC(=O)N[C@H](C(C)C)C(=O)N2)OC(=O)[C@H](C(C)C)NC1=O [Romidepsin]
[1]; 0.00032 µM
  viability: 1
[1]; 0.0016 µM
  viability: 0.911
[1]; 0.008 µM
  viability: 0.477
[1]; 0.04 µM
  viability: 0.127
[1]; 0.2 µM
  viability: 0.0886
[2]; 0.00032 µM
  viability: 0.935
[2]; 0.0016 µM
  viability: 0.727
[2]; 0.008 µM
  viability: 0.507
[2]; 0.04 µM
  viability: 0.373
[2]; 0.2 µM
  viability: 0.345
[3]; 0.00032 µM
  viability: 1.1
[3]; 0.0016 µM
  viability: 1.01
[3]; 0.008 µM
  viability: 0.722
[3]; 0.04 µM
  viability: 0.0806
[3]; 0.2 µM
  viability: 0.0665
[4]; 0.00032 µM
  viability: 1.06
[4]; 0.0016 µM
  viability: 0.911
[4]; 0.008 µM
  viability: 0.554
[4]; 0.04 µM
  viability: 0.516
[4]; 0.2 µM
  viability: 0.508
[5]; 0.00032 µM
  viability: 0.924
[5]; 0.0016 µM
  viability: 0.89
[5]; 0.008 µM
  viability: 0.156
[5]; 0.04 µM
  viability: 0.0512
[5]; 0.2 µM
  viability: 0.0574
[6]; 0.00032 µM
  viability: 0.976
[6]; 0.0016 µM
  viability: 0.947
[6]; 0.008 µM
  viability: 0.283
[6]; 0.04 µM
  viability: 0.0359
[6]; 0.2 µM
  viability: 0.0368
[7]; 0.00032 µM
  viability: 1.04
[7]; 0.0016 µM
  viability: 0.817
[7]; 0.008 µM
  viability: 0.103
[7]; 0.04 µM
  viability: 0.0584
[7]; 0.2 µM
  viability: 0.0681
[8]; 0.00032 µM
  viability: 1
[8]; 0.0016 µM
  viability: 0.948
[8]; 0.008 µM
  viability: 0.63
[8]; 0.04 µM
  viability: 0.564
[8]; 0.2 µM
  viability: 0.538
[9]; 0.00032 µM
  viability: 1.07
[9]; 0.0016 µM
  viability: 0.717
[9]; 0.008 µM
  viability: 0.0898
[9]; 0.04 µM
  viability: 0.061
[9]; 0.2 µM
  viability: 0.0838
[10]; 0.00032 µM
  viability: 0.92
[10]; 0.0016 µM
  viability: 0.83
[10]; 0.008 µM
  viability: 0.369
[10]; 0.04 µM
  viability: 0.0933
[10]; 0.2 µM
  viability: 0.084
[11]; 0.00032 µM
  viability: 0.886
[11]; 0.0016 µM
  viability: 0.0597
[11]; 0.008 µM
  viability: 0.026
[11]; 0.04 µM
  viability: 0.0248
[11]; 0.2 µM
  viability: 0.0226
[12]; 0.00032 µM
  viability: 1.06
[12]; 0.0016 µM
  viability: 0.614
[12]; 0.008 µM
  viability: 0.264
[12]; 0.04 µM
  viability: 0.188
[12]; 0.2 µM
  viability: 0.184
[13]; 0.00032 µM
  viability: 0.932
[13]; 0.0016 µM
  viability: 0.817
[13]; 0.008 µM
  viability: 0.222
[13]; 0.04 µM
  viability: 0.175
[13]; 0.2 µM
  viability: 0.194
[14]; 0.00032 µM
  viability: 0.923
[14]; 0.0016 µM
  viability: 0.968
[14]; 0.008 µM
  viability: 0.0338
[14]; 0.04 µM
  viability: 0.0187
[14]; 0.2 µM
  viability: 0.0209
[15]; 0.00032 µM
  viability: 0.904
[15]; 0.0016 µM
  viability: 0.298
[15]; 0.008 µM
  viability: 0.118
[15]; 0.04 µM
  viability: 0.0914
[15]; 0.2 µM
  viability: 0.0996
[16]; 0.00032 µM
  viability: 0.992
[16]; 0.0016 µM
  viability: 0.651
[16]; 0.008 µM
  viability: 0.365
[16]; 0.04 µM
  viability: 0.295
[16]; 0.2 µM
  viability: 0.315
[17]; 0.00032 µM
  viability: 1.02
[17]; 0.0016 µM
  viability: 0.895
[17]; 0.008 µM
  viability: 0.738
[17]; 0.04 µM
  viability: 0.772
[17]; 0.2 µM
  viability: 0.758
